Data published in patent publication US20200289514A1, “Novel Pyrazolo Pyrimidine Derivatives” (Novartis AG, priority 2015, published 2020).

Legend:
[1] = target: T1, C-domain of MALT1 (amino acids 329-824) (Homo sapiens, UniProt Q9UDY8); assay: MALT1 Biochemical Assay - Version 2 (fluorescence intensity); design: C-domain of MALT1 (amino acids 329-824); settings: fluorescence intensity readout, Rh110 substrate
T1 sequence (Q9UDY8 329-824): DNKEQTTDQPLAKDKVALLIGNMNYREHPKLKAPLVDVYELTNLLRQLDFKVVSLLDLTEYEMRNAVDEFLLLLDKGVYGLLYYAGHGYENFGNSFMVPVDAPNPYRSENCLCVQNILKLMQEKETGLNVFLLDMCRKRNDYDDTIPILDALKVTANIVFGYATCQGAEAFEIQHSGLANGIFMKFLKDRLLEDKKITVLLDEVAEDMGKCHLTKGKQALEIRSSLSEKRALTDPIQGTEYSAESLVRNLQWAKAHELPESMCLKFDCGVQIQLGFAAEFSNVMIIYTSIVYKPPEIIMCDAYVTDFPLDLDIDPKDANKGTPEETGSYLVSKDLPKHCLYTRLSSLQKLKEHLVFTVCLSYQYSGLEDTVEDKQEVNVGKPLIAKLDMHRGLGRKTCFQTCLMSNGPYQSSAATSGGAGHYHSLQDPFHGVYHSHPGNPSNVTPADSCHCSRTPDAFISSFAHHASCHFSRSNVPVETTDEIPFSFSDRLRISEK
Protocol: Alternatively the biochemical activity of some examples, namely example 43 and the Reference compound, were determined by measuring fluorescence intensity as described below:
MALT1 Biochemical Assay—Version 2:
The readout parameter is the increase of fluorescence intensity, proportional to enzyme activity.
The assay employs a short peptide substrate labeled with the fluorophore Rhodamine 110 (Rh110) as a fluorescence probe sensitive to the cleavage state of the substrate. The peptide substrate has the following sequence: Ac-Leu-Arg-Ser-Arg^Rh110-dPro (Product number BS-3027, Biosyntan, Germany; within the substrate sequence, A indicates the scissile bond). […] The assay was established for the 384-well plate format using black microtiter well plates. Test compounds were dissolved in 100% (v/v) DMSO or a mixture containing 90% (v/v) DMSO and 10% (v/v) H2O at a stock concentration of 100 mM. Serial dilutions of test compounds were prepared using either 100% (v/v) DMSO or a mixture containing 90% (v/v) DMSO and 10% (v/v) H2O.
y=A2+(A1−A2)/(1+(x/IC50)^ p) where y is the %-inhibition at the inhibitor concentration, x. A1 is the lowest inhibition value, and A2 the maximum inhibition value. The exponent, p, is the Hill coefficient.

Human IL2 promoter = Human IL2 promoter reporter gene assay (RGA) in Jurkat cells; type: cell-based; settings: Jurkat clone K22 290_H23, anti-CD28 mAb + PMA, 5.5 h
Protocol: Human IL2 Promoter Reporter Gene Assay (RGA) in Jurkat Cells
The transfected Jurkat clone K22 290_H23 was propagated in RPMI 1640 supplemented with 10% heat inactivated fetal calf serum, 50 μM 2-mercaptoethanol and 1 mg/ml Geneticin. The cell concentration should not exceed 1×10e6/ml during culturing. The cells should not exceed passage 30. Prior to the assay the cells were washed and prepared to the concentration of 2×10e6 cells/ml.
Compound dilutions were made as 2×-concentrated solutions then diluted ½ by addition to cells. Two hundred and fifty μl of compound dilution and 250 μl of cells were mixed together in wells of a 96-deep well plate. Cells/compounds premix were incubated 30 min at 37° C. and 5% CO2 directly in the deep well plate.
After pre-incubation of cells with compounds, cells were stimulated with anti-CD28 mAb (clone 15E8) at 3 μg/ml+PMA at 1 μg/ml. Both co-stimulants were diluted in culture medium at a 10×-concentrated solution. 10 μl of co-stimulants were pipetted into the white 96-well plates and 100 μl of cell/compound mix was immediately added in duplicates. The cells were stimulated for 5.5 h at 37° C. and 5% CO2.
After cell stimulation, 50 μl of BriteLitePlus reagent (Perkin Elmer) was added to each well and the bioluminescence was measured with a Wallac EnVision reader (Perkin Elmer).

[2] = target: T1, C-domain of MALT1 (amino acids 329-824); assay: MALT1 Biochemical Assay - Version 1 (fluorescence lifetime)
Protocol: The readout parameter is the increase of fluorescence lifetime over time, proportional to enzyme activity.
The assay employs a short peptide substrate labeled with the single fluorophore PT14 as a fluorescence lifetime probe sensitive to the cleavage state of the substrate (PT14: 6-(9-oxo-9H-acridin-10-yl)-hexanoate, AssayMetrics, UK). […] Test compounds were dissolved in 100% (v/v) DMSO or a mixture containing 90% (v/v) DMSO and 10% (v/v) H2O at a stock concentration of 100 mM. Serial dilutions of test compounds were prepared using either 100% (v/v) DMSO or a mixture containing 90% (v/v) DMSO and 10% (v/v) H2O.

| IC50 [1] | IC50 (Human IL2 promoter) | IC50 [2] | Compound |
| --- | --- | --- | --- |
| 8 nM | 69 nM |  | CO[C@@H](C)c1c(NC(=O)Nc2cnc(C(N)=O)c(Cl)c2)cnc2cc(F)nn12 [Example 43, (S)-3-chloro-5-(3-(2-fluoro-7-(1-methoxyethyl)pyrazolo[1,5-a]pyrimidin-6-yl)ureido)picolinamide] |
| 6 nM |  | 12 nM | CC(C)[C@H](NC(=O)OCc1ccccc1)C(=O)N[C@@H](C)C(=O)N[C@@H](CC(=O)OC(C)(C)C)C(=O)COC(=O)c1c(Cl)cccc1Cl [Reference**, reference compound] |
